Assay: xn = mol fraction of the nth substance listed
Details: for viscosity / mass density / speed of sound: 102 kPa, Liquid; for viscosity: Concentric cylinders viscometry; for mass density: Vibrating tube method; for speed of sound: Frequency=3 MHz, Single path-length method; for surface tension liquid-gas: 294 K, Pendant drop shape

CC(CC(C)(C)C)CC(C)(C)C [2,2,4,6,6-pentamethylheptane] + CCCCCCc1ccccc1
Details | mass density [kg/m3] | speed of sound [m/s] | viscosity [mPa·s]
253.15 K, x2 = 0.1 | 784.1 | – | 3
253.15 K, x2 = 0.2065 | 795 | – | 3.03
253.15 K, x2 = 0.3009 | 804.9 | – | 3.08
253.15 K, x2 = 0.3968 | 815.2 | – | 3.19
253.15 K, x2 = 0.5001 | 826.8 | – | –
253.15 K, x2 = 0.5004 | – | – | 3.31
253.15 K, x2 = 0.6 | 838.5 | – | 3.47
253.15 K, x2 = 0.6998 | 850.5 | – | 3.7
253.15 K, x2 = 0.7997 | 863.5 | – | 3.93
253.15 K, x2 = 0.8999 | 875.7 | – | 4.2
288.15 K, x2 = 0.1 | 758.47 | 1238.9 | –
288.15 K, x2 = 0.2065 | 769.17 | 1255.2 | –
288.15 K, x2 = 0.3009 | 778.97 | 1270.3 | –
288.15 K, x2 = 0.3968 | 789.42 | 1286.2 | –
288.15 K, x2 = 0.5001 | 800.56 | – | –
288.15 K, x2 = 0.5004 | – | 1302.9 | –
288.15 K, x2 = 0.6 | 812.08 | 1320.1 | –
288.15 K, x2 = 0.6998 | 824 | 1338 | –
288.15 K, x2 = 0.7997 | 836.31 | 1356.4 | –
288.15 K, x2 = 0.8999 | 849.13 | 1375.5 | –
293.15 K, x2 = 0.1 | 754.83 | 1219 | 1.31
293.15 K, x2 = 0.2065 | 765.51 | 1235.7 | 1.31
293.15 K, x2 = 0.3009 | 775.3 | 1250.6 | 1.31
293.15 K, x2 = 0.3968 | 785.5 | 1266 | 1.35
293.15 K, x2 = 0.5001 | 796.87 | – | –
293.15 K, x2 = 0.5004 | – | 1283.3 | 1.36
293.15 K, x2 = 0.6 | 808.37 | 1300.6 | 1.4
293.15 K, x2 = 0.6998 | 820.27 | 1318.6 | 1.46
293.15 K, x2 = 0.7997 | 832.57 | 1337.1 | 1.51
293.15 K, x2 = 0.8999 | 845.36 | 1356.2 | 1.56
303.15 K, x2 = 0.1 | 747.53 | 1180 | 1.12
303.15 K, x2 = 0.2065 | 758.19 | 1197.2 | 1.13
303.15 K, x2 = 0.3009 | 767.96 | 1211.8 | 1.14
303.15 K, x2 = 0.3968 | 778.14 | 1227.4 | 1.15
303.15 K, x2 = 0.5001 | 789.48 | – | –
303.15 K, x2 = 0.5004 | – | 1244.8 | 1.17
303.15 K, x2 = 0.6 | 800.94 | 1262.2 | 1.2
303.15 K, x2 = 0.6998 | 812.8 | 1280.3 | 1.25
303.15 K, x2 = 0.7997 | 825.06 | 1299 | 1.29
303.15 K, x2 = 0.8999 | 837.82 | 1318.2 | 1.33
313.15 K, x2 = 0.1 | 740.2 | 1141.9 | 0.957
313.15 K, x2 = 0.2065 | 750.84 | 1159.3 | 0.962
313.15 K, x2 = 0.3009 | 760.6 | 1174 | 0.967
313.15 K, x2 = 0.3968 | 770.75 | 1189.7 | 0.979
313.15 K, x2 = 0.5001 | 782.06 | – | –
313.15 K, x2 = 0.5004 | – | 1207.2 | 1
313.15 K, x2 = 0.6 | 793.5 | 1224.7 | 1.02
313.15 K, x2 = 0.6998 | 805.33 | 1243 | 1.06
313.15 K, x2 = 0.7997 | 817.55 | 1261.7 | 1.09
313.15 K, x2 = 0.8999 | 830.26 | 1281 | 1.12
323.15 K, x2 = 0.1 | 732.84 | 1104.7 | 0.848
323.15 K, x2 = 0.2065 | 743.45 | 1122.2 | 0.853
323.15 K, x2 = 0.3009 | 753.21 | 1136.9 | 0.861
323.15 K, x2 = 0.3968 | 763.34 | 1152.8 | 0.873
323.15 K, x2 = 0.5001 | 774.63 | – | –
323.15 K, x2 = 0.5004 | – | 1170.4 | 0.889
323.15 K, x2 = 0.6 | 786.03 | 1188.1 | 0.911
323.15 K, x2 = 0.6998 | 797.82 | 1206.4 | 0.943
323.15 K, x2 = 0.7997 | 810.01 | 1225.2 | 0.964
323.15 K, x2 = 0.8999 | 822.68 | 1244.6 | 0.992
333.15 K, x2 = 0.1 | 725.44 | 1068.5 | 0.749
333.15 K, x2 = 0.2065 | 736.04 | 1085.8 | 0.753
333.15 K, x2 = 0.3009 | 745.77 | 1101 | 0.758
333.15 K, x2 = 0.3968 | 755.89 | 1117 | 0.768
333.15 K, x2 = 0.5001 | 767.15 | – | –
333.15 K, x2 = 0.5004 | – | 1134.6 | 0.783
333.15 K, x2 = 0.6 | 778.54 | 1152.5 | 0.803
333.15 K, x2 = 0.6998 | 790.29 | 1170.8 | 0.828
333.15 K, x2 = 0.7997 | 802.45 | 1189.6 | 0.844
333.15 K, x2 = 0.8999 | 815.08 | 1209.1 | 0.87

Details | surface tension liquid-gas [mN/m]
x2 = 0.1 | 21.9
x2 = 0.2065 | 22.5
x2 = 0.3009 | 23.1
x2 = 0.3968 | 23.5
x2 = 0.5001 | 24.1
x2 = 0.6 | 24.7
x2 = 0.6998 | 25.5
x2 = 0.7997 | 26.5
x2 = 0.8999 | 27.7

Source: the NIST ThermoML archive (doi:10.1021/acs.jced.8b00387)
